In PubChem BioAssay (NCI):
Several values for one entry are separate records, joined by “and”; a condition that tells them apart may be missing. Equal values may be shown once.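 Assay format: 96-well plates, 48-hour exposure. GI50 is the concentration that inhibits growth by half. TGI marks complete inhibition of growth.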

Columns and labels:
Assay in all cases: growth of human tumour cells (NCI), 48 h; in the data active = GI50 below about 0.43 µM; inactive = the rest
786-0 renal = test system: 786-0 renal
EKVX NSCLC = test system: EKVX NSCLC
HCC-2998 colon = test system: HCC-2998 colon
IGROV1 ovarian = test system: IGROV1 ovarian
MALME-3M melanoma = test system: MALME-3M melanoma
SF-268 CNS = test system: SF-268 CNS
SK-OV-3 ovarian = test system: SK-OV-3 ovarian
SN12C renal = test system: SN12C renal
SNB-19 CNS = test system: SNB-19 CNS

Cc1c(C(=O)CC(=O)C(=O)Nc2ccc(Cl)c(Cl)c2)[n+](=O)c2ccccc2n1[O-]
36.5 µM: TGI (MALME-3M melanoma)
36.9 µM: TGI (EKVX NSCLC)
67.3 µM: TGI (HCC-2998 colon)
69 µM: TGI (786-0 renal)
55.4 µM: TGI (SN12C renal)
50.8 µM: TGI (IGROV1 ovarian)
85.2 µM: TGI (SF-268 CNS)
> 100 µM: TGI (SK-OV-3 ovarian) | TGI (SNB-19 CNS)

ClC1CCC2OOC1O2 (stereo unspecified)
> 100 µM: TGI (786-0 renal) | TGI (EKVX NSCLC) | TGI (HCC-2998 colon) | TGI (IGROV1 ovarian) | TGI (MALME-3M melanoma) | TGI (SF-268 CNS) | TGI (SK-OV-3 ovarian) | TGI (SN12C renal) | TGI (SNB-19 CNS)

O=c1c2ccccc2nc(-c2ccc(Br)cc2)n1NC1OC(CO)C(O)C(O)C1O (stereo unspecified)
> 100 µM: TGI (786-0 renal) | TGI (EKVX NSCLC) | TGI (HCC-2998 colon) | TGI (IGROV1 ovarian) | TGI (MALME-3M melanoma) | TGI (SF-268 CNS) | TGI (SK-OV-3 ovarian) | TGI (SN12C renal) | TGI (SNB-19 CNS)

CCC1=C(C)/C(=C/c2[nH]c(CBr)c(CC)c2C)N=C1CBr
28.3 µM: TGI (SN12C renal)
40.4 µM: TGI (786-0 renal)
49.1 µM: TGI (EKVX NSCLC)
36.8 µM: TGI (SF-268 CNS)
38.1 µM: TGI (IGROV1 ovarian)
41 µM: TGI (MALME-3M melanoma)
45 µM: TGI (SK-OV-3 ovarian)
33.9 µM: TGI (SNB-19 CNS)
26.3 µM: TGI (HCC-2998 colon)

COc1cc2ccc3c4c(OC)cc(OC)c(OC)c4c(=O)n(C)c3c2cc1OC
16.7 µM and > 49.6 µM: TGI (MALME-3M melanoma)
> 36.1 µM: TGI (HCC-2998 colon)
16.7 µM and > 45.6 µM: TGI (IGROV1 ovarian)
16.7 µM and > 48.7 µM: TGI (EKVX NSCLC)
> 47.8 µM: TGI (SK-OV-3 ovarian)
> 51.7 µM: TGI (SNB-19 CNS)
inactive: GI50 (786-0 renal) 1780 nM | GI50 (EKVX NSCLC) 5.65 µM | GI50 (MALME-3M melanoma) 13.4 µM | GI50 (SF-268 CNS) 1130 nM | GI50 (SN12C renal) 532 nM
10.7 µM and > 21.2 µM: TGI (SF-268 CNS)

COC(=O)/C(C#N)=C1\CCC(O)N1C (stereo unspecified)
> 100 µM: TGI (786-0 renal) | TGI (EKVX NSCLC) | TGI (HCC-2998 colon) | TGI (IGROV1 ovarian) | TGI (MALME-3M melanoma) | TGI (SF-268 CNS) | TGI (SK-OV-3 ovarian) | TGI (SN12C renal) | TGI (SNB-19 CNS)

COC(=O)C(C(=O)C(=O)NC1=C(Cl)C(=O)c2ccccc2C1=O)c1csc(-n2nc(-c3ccccc3)cc2-c2ccccc2)n1 (stereo unspecified)
> 100 µM: TGI (786-0 renal) | TGI (EKVX NSCLC) | TGI (HCC-2998 colon) | TGI (IGROV1 ovarian) | TGI (MALME-3M melanoma) | TGI (SF-268 CNS) | TGI (SK-OV-3 ovarian) | TGI (SN12C renal) | TGI (SNB-19 CNS)

COc1ccc(C(c2ccc(C(C)C)cc(=O)c2O)c2ccc3cccnc3c2O)cc1 (stereo unspecified)
5.61 µM: TGI (786-0 renal)
9.48 µM: TGI (SN12C renal)
17.5 µM: TGI (MALME-3M melanoma)
10.4 µM: TGI (SF-268 CNS)
7.86 µM: TGI (EKVX NSCLC)
15.3 µM: TGI (IGROV1 ovarian)
16.4 µM: TGI (SK-OV-3 ovarian)

CCc1ccccc1NC(=O)CCc1n[nH]c(=S)o1
> 100 µM: TGI (786-0 renal) | TGI (EKVX NSCLC) | TGI (HCC-2998 colon) | TGI (IGROV1 ovarian) | TGI (MALME-3M melanoma) | TGI (SF-268 CNS) | TGI (SK-OV-3 ovarian) | TGI (SN12C renal) | TGI (SNB-19 CNS)

CC(=O)OCc1cc(OC(C)=O)cnc1COC(C)=O
> 100 µM: TGI (786-0 renal) | TGI (EKVX NSCLC) | TGI (IGROV1 ovarian) | TGI (MALME-3M melanoma) | TGI (SF-268 CNS) | TGI (SK-OV-3 ovarian) | TGI (SN12C renal) | TGI (SNB-19 CNS)

COC(=O)C1=CN=C(C(=O)OC)NN1
> 100 µM: TGI (786-0 renal) | TGI (IGROV1 ovarian) | TGI (MALME-3M melanoma) | TGI (SF-268 CNS) | TGI (SK-OV-3 ovarian) | TGI (SN12C renal) | TGI (SNB-19 CNS)

CC(=O)NC(CCCCNC(=O)N(CCCl)N=O)C(=O)NCc1ccccc1 (stereo unspecified)
> 100 µM: TGI (786-0 renal) | TGI (EKVX NSCLC) | TGI (HCC-2998 colon) | TGI (IGROV1 ovarian) | TGI (MALME-3M melanoma) | TGI (SF-268 CNS) | TGI (SN12C renal) | TGI (SNB-19 CNS)

Cc1oc2c(C)c(O)c3c(c2c1C1(C)OCCO1)C(=O)C=C(Cl)C3=O
> 100 µM: TGI (786-0 renal) | TGI (EKVX NSCLC) | TGI (IGROV1 ovarian) | TGI (SF-268 CNS) | TGI (SN12C renal) | TGI (SNB-19 CNS)

N.N.N.N.N.N.[I-].[Os]
inactive: GI50 (786-0 renal) > 100000 nM | GI50 (EKVX NSCLC) > 100 µM | GI50 (HCC-2998 colon) > 100 µM | GI50 (IGROV1 ovarian) > 100 µM | GI50 (MALME-3M melanoma) 38.9 µM | GI50 (SF-268 CNS) > 100000 nM | GI50 (SK-OV-3 ovarian) > 100 µM | GI50 (SN12C renal) > 100000 nM | GI50 (SNB-19 CNS) > 100 µM
96.5 µM: TGI (MALME-3M melanoma)
> 100 µM: TGI (786-0 renal) | TGI (EKVX NSCLC) | TGI (HCC-2998 colon) | TGI (IGROV1 ovarian) | TGI (SF-268 CNS) | TGI (SK-OV-3 ovarian) | TGI (SN12C renal) | TGI (SNB-19 CNS)

CN(C)C(=O)/N=c1\ss/c(=N\C(=S)N(C)C)n1-c1ccccc1
> 100 µM: TGI (EKVX NSCLC) | TGI (HCC-2998 colon) | TGI (IGROV1 ovarian) | TGI (MALME-3M melanoma) | TGI (SF-268 CNS) | TGI (SK-OV-3 ovarian) | TGI (SN12C renal) | TGI (SNB-19 CNS)
47.1 µM: TGI (786-0 renal)
active: GI50 (SF-268 CNS) 389 nM

C[C@@H](CO)OCOCc1ccccc1
> 100 µM: TGI (786-0 renal) | TGI (HCC-2998 colon) | TGI (IGROV1 ovarian) | TGI (MALME-3M melanoma) | TGI (SF-268 CNS) | TGI (SK-OV-3 ovarian) | TGI (SN12C renal) | TGI (SNB-19 CNS)

C/C=C/C=N/N(C(=O)c1cc([N+](=O)[O-])cc([N+](=O)[O-])c1)C1=NC(c2ccccc2)C(c2ccccc2)=NN1 (stereo unspecified)
75.2 µM: TGI (MALME-3M melanoma)
> 100 µM: TGI (786-0 renal) | TGI (EKVX NSCLC) | TGI (HCC-2998 colon) | TGI (IGROV1 ovarian) | TGI (SF-268 CNS) | TGI (SK-OV-3 ovarian) | TGI (SN12C renal) | TGI (SNB-19 CNS)
